Laboratory results as given in the NIST ThermoML archive (doi:10.1016/j.jct.2016.11.002).

Tests used:
[1] = xn = mol fraction of the nth substance listed; details: 100 kPa, Liquid; for speed of sound: Frequency=3 MHz, Single path-length method; for mass density: Vibrating tube method
[2] = refractive index (Na D-line) (dimensionless); xn = mol fraction of the nth substance listed; details: 100 kPa, Liquid, Standard Abbe refractometry

CCOCCO [2-ethoxyethan-1-ol] + CCOC(=O)OCC
Details	mass density, [1] [kg/m3]	refractive index, [2]	speed of sound, [1] [m/s]
298.15 K, x2 = 0	925.54	1.4055	1302.8
298.15 K, x2 = 0.0957	929.94	1.4036	1287
298.15 K, x2 = 0.1529	932.54	1.4025	1278.3
298.15 K, x2 = 0.2624	937.43	1.4003	1262.2
298.15 K, x2 = 0.3484	941.21	1.3985	1250
298.15 K, x2 = 0.4447	945.38	1.3963	1236.7
298.15 K, x2 = 0.5468	949.76	1.3939	1223.5
298.15 K, x2 = 0.6539	954.3	1.3912	1210.8
298.15 K, x2 = 0.7721	959.31	1.3882	1198.3
298.15 K, x2 = 0.8793	963.87	1.3855	1188
303.15 K, x2 = 0	920.99	1.4042	1285
303.15 K, x2 = 0.0957	925.24	1.4024	1268.9
303.15 K, x2 = 0.1529	927.76	1.4012	1259.8
303.15 K, x2 = 0.2624	932.5	1.3989	1243.4
303.15 K, x2 = 0.3484	936.17	1.397	1230.7
303.15 K, x2 = 0.4447	940.24	1.3947	1217.3
303.15 K, x2 = 0.5468	944.5	1.3921	1204
303.15 K, x2 = 0.6539	948.94	1.3894	1191.1
303.15 K, x2 = 0.7721	953.83	1.3862	1178.3
303.15 K, x2 = 0.8793	958.31	1.3834	1167.8
308.15 K, x2 = 0	916.41	1.4028	1267.3
308.15 K, x2 = 0.0957	920.51	1.4011	1250.7
308.15 K, x2 = 0.1529	922.94	1.3999	1241.3
308.15 K, x2 = 0.2624	927.54	1.3975	1224.6
308.15 K, x2 = 0.3484	931.11	1.3954	1211.9
308.15 K, x2 = 0.4447	935.08	1.393	1198.3
308.15 K, x2 = 0.5468	939.21	1.3904	1184.7
308.15 K, x2 = 0.6539	943.54	1.3875	1171.6
308.15 K, x2 = 0.7721	948.31	1.3843	1158.4
308.15 K, x2 = 0.8793	952.72	1.3813	1147.6
313.15 K, x2 = 0	911.8	1.4016	1249.6
313.15 K, x2 = 0.0957	915.76	1.3999	1232.5
313.15 K, x2 = 0.1529	918.09	1.3987	1223
313.15 K, x2 = 0.2624	922.55	1.3961	1205.9
313.15 K, x2 = 0.3484	926	1.3939	1193
313.15 K, x2 = 0.4447	929.84	1.3914	1179.3
313.15 K, x2 = 0.5468	933.88	1.3886	1165.6
313.15 K, x2 = 0.6539	938.09	1.3857	1152.1
313.15 K, x2 = 0.7721	942.77	1.3823	1138.6
313.15 K, x2 = 0.8793	947.11	1.3792	1127.5
318.15 K, x2 = 0	907.15	1.4001	1232
318.15 K, x2 = 0.0957	910.93	1.3986	1214.4
318.15 K, x2 = 0.1529	913.21	1.3973	1204.6
318.15 K, x2 = 0.2624	917.51	1.3946	1187.2
318.15 K, x2 = 0.3484	920.86	1.3923	1174.3
318.15 K, x2 = 0.4447	924.57	1.3897	1160.4
318.15 K, x2 = 0.5468	928.49	1.3868	1146.6
318.15 K, x2 = 0.6539	932.6	1.3838	1132.8
318.15 K, x2 = 0.7721	937.19	1.3804	1119
318.15 K, x2 = 0.8793	941.45	1.377	1107.8
323.15 K, x2 = 0	902.46	1.3988	1214.3
323.15 K, x2 = 0.0957	906.11	1.3973	1196.3
323.15 K, x2 = 0.1529	908.28	1.396	1186.3
323.15 K, x2 = 0.2624	912.44	1.3931	1168.7
323.15 K, x2 = 0.3484	915.7	1.3907	1155.6
323.15 K, x2 = 0.4447	919.3	1.388	1141.6
323.15 K, x2 = 0.5468	923.1	1.3851	1127.5
323.15 K, x2 = 0.6539	927.1	1.382	1113.6
323.15 K, x2 = 0.7721	931.58	1.3784	1099.6
323.15 K, x2 = 0.8793	935.76	1.3749	1088.1
